# Measurements as given in ChEMBL document CHEMBL4196217, “Structure-Based Drug Design and Identification of H2O-Soluble and Low Toxic Hexacyclic Camptothecin Derivatives with Improved Efficacy in Cancer and Lethal Inflammation Models in Vivo” (J Med Chem, 2018).
# Calls of active or inactive are those of the source. The rule behind the calls is not given here.
# Legend:
# [1] = system: Bel-7402; experiment: Cytotoxicity in human Bel7402 cells assessed as reduction in cell viability incubated for 48 hrs by MTT assay; type: functional, cell-based; conditions: Bel-7402, 48 h
# [2] = system: Mus musculus; experiment: Toxicity in human HepG2 cells xenografted Balb/C mouse assessed as induction of gastrointestinal flatulence at 1/3 mg/kg, po qd for 30 days followed by 2 weeks observation; type: organism-based; conditions: in vivo, 336 h
# [3] = system: MDA-MB-231; experiment: Cytotoxicity in human MDA-MB-231 cells assessed as reduction in cell viability incubated for 48 hrs by MTT assay; type: functional, cell-based; conditions: MDA-MB-231, 48 h
# [4] = system: Mus musculus; experiment: Toxicity in human HepG2 cells xenografted Balb/C mouse assessed as effect on mouse survival at 1.3 mg/kg, po qd for 30 days followed by 2 weeks observation; type: organism-based; conditions: in vivo, 336 h
# [5] = system: SGC-7901; experiment: Cytotoxicity in human SGC7901 cells assessed as reduction in cell viability incubated for 48 hrs by MTT assay; type: functional, cell-based; conditions: SGC-7901, 48 h
# [6] = system: Mus musculus; experiment: Toxicity in human HepG2 cells xenografted Balb/C mouse assessed as reduction in body weight at 1.3 mg/kg, po qd for 30 days followed by 2 weeks observation; type: organism-based; conditions: in vivo, 336 h
# [7] = system: HepG2; experiment: Antitumor activity against human HepG2 cells xenografted in Balb/C mouse assessed as inhibition of tumor growth at 30 mg/kg, iv dosed once per week for 30 days followed by 2 weeks observation relative untreated control; type: functional; conditions: read-out: TGI
# [8] = system: HepG2; experiment: Antitumor activity against human HepG2 cells xenografted in Balb/C mouse assessed as inhibition of tumor growth at 8 mg/kg, iv dosed once per week for 30 days followed by 2 weeks observation relative untreated control; type: functional; conditions: read-out: TGI
# [9] = system: Mus musculus; experiment: Toxicity in human HepG2 cells xenografted Balb/C mouse assessed as induction of gastrointestinal flatulence at 8 mg/kg, iv dosed once per week for 30 days followed by 2 weeks observation; type: organism-based; conditions: in vivo, 336 h
# [10] = system: Mus musculus; experiment: Toxicity in human HepG2 cells xenografted Balb/C mouse assessed as reduction in body weight at 8 mg/kg, iv dosed once per week for 30 days followed by 2 weeks observation; type: organism-based; conditions: in vivo, 336 h
# [11] = system: HepG2; experiment: Antitumor activity against human HepG2 cells xenografted in Balb/C mouse assessed as inhibition of tumor growth at 4 mg/kg, iv dosed once per week for 30 days followed by 2 weeks observation relative untreated control; type: functional; conditions: read-out: TGI
# [12] = system: Mus musculus; experiment: Toxicity in human HepG2 cells xenografted Balb/C mouse assessed as effect on mouse survival at 8 mg/kg, iv dosed once per week for 30 days followed by 2 weeks observation; type: organism-based; conditions: in vivo, 336 h
# [13] = system: Mus musculus; experiment: Toxicity in human HepG2 cells xenografted Balb/C mouse assessed as effect on mouse survival at 4 mg/kg, iv dosed once per week for 30 days followed by 2 weeks observation; type: organism-based; conditions: in vivo, 336 h
# [14] = system: HepG2; experiment: Cytotoxicity in human HepG2 cells assessed as reduction in cell viability incubated for 48 hrs by MTT assay; type: functional, cell-based; conditions: HepG2, 48 h
# [15] = system: HepG2; experiment: Antitumor activity against human HepG2 cells xenografted in Balb/C mouse assessed as inhibition of tumor growth at 1.3 mg/kg, po qd for 30 days followed by 2 weeks observation relative untreated control; type: functional; conditions: read-out: TGI
# [16] = system: KB; experiment: Cytotoxicity in human KB cells assessed as reduction in cell viability incubated for 48 hrs by MTT assay; type: functional, cell-based
# [17] = system: SK-N-SH; experiment: Cytotoxicity in human SK-N-SH cells assessed as reduction in cell viability incubated for 48 hrs by MTT assay; type: functional, cell-based
# [18] = Drug metabolism in plasma of C57BL/6 mouse assessed as (S)-8-Ethyl-8-hydroxy-2-isopropyl-8H-oxazolo[4,5-f ]-pyrano[3',4':6,7]indolizino[1,2-b]quinoline-9,12(11H,14H)-dione formation at 10 mg/kg, po measured up to 1 hr by LC-MS/MS analysis; type: ADME, organism-based; conditions: in vivo
# [19] = system: MGC-803; experiment: Cytotoxicity in human MGC803 cells assessed as reduction in cell viability incubated for 48 hrs by MTT assay; type: functional, cell-based; conditions: MGC-803, 48 h
# [20] = system: SMMC-7721; experiment: Cytotoxicity in human SMMC7721 cells assessed as reduction in cell viability incubated for 48 hrs by MTT assay; type: functional, cell-based; conditions: SMMC-7721, 48 h
# [21] = Drug level in plasma of C57BL/6 mouse at 10 mg/kg, po measured up to 30 hrs by LC-MS/MS analysis; type: ADME, organism-based; conditions: in vivo
# [22] = Drug metabolism in plasma of C57BL/6 mouse assessed as (9S)-9-Ethyl-9-hydroxy-3-isopropyl-2,3-dihydro[1,3]-oxazino[5,6-f ]pyrano[3',4':6,7]indolizino[1,2-b]quinoline-1,10,13(9H,12H,15H)-trione formation at 10 mg/kg, iv measured up to 1 hr by LC-MS/MS analysis; type: ADME, organism-based; conditions: in vivo
# [23] = system: Mus musculus; experiment: Protection against LPS-induced lethal inflammation in C57BL/6 mouse model of sepsis assessed as survival at 4 mg/kg, po dosed 0.5 hrs before LPS injection followed by 4 mg/kg, po dosing at 1 hr, 4 hrs, and 8 hrs after LPS treatment; type: functional
# [24] = system: A549; experiment: cells; conditions: Homo sapiens, A549, 48 h
# Description: Cytotoxicity in human A549 cells assessed as reduction in cell viability incubated for 48 hrs by MTT assay
# [25] = system: QGY-7703; experiment: Cytotoxicity in human QGY7703 cells assessed as reduction in cell viability incubated for 48 hrs by MTT assay; type: functional, cell-based; conditions: QGY-7703, 48 h
# [26] = system: Mus musculus; experiment: Toxicity in human HepG2 cells xenografted Balb/C mouse assessed as induction of gastrointestinal flatulence at 4 mg/kg, iv dosed once per week for 30 days followed by 2 weeks observation; type: organism-based; conditions: in vivo, 336 h
# [27] = system: MCF7; experiment: cells; conditions: Homo sapiens, MCF7, 48 h
# Description: Cytotoxicity in human MCF7 cells assessed as reduction in cell viability incubated for 48 hrs by MTT assay
# [28] = system: Mus musculus; experiment: Toxicity in human HepG2 cells xenografted Balb/C mouse assessed as reduction in body weight at 4 mg/kg, iv dosed once per week for 30 days followed by 2 weeks observation; type: organism-based; conditions: in vivo, 336 h
# [29] = Drug metabolism in plasma of C57BL/6 mouse assessed as (9S)-9-Ethyl-9-hydroxy-3-isopropyl-2,3-dihydro[1,3]-oxazino[5,6-f ]pyrano[3',4':6,7]indolizino[1,2-b]quinoline-1,10,13(9H,12H,15H)-trione formation at 10 mg/kg, po measured up to 1 hr by LC-MS/MS analysis; type: ADME, organism-based; conditions: in vivo
# [30] = system: Mus musculus; experiment: Toxicity in human HepG2 cells xenografted Balb/C mouse assessed as reduction in body weight at 2 mg/kg, iv dosed once per week for 30 days followed by 2 weeks observation; type: organism-based; conditions: in vivo, 336 h
# [31] = system: HepG2; experiment: Antitumor activity against human HepG2 cells xenografted in Balb/C mouse assessed as inhibition of tumor growth at 2 mg/kg, iv dosed once per week for 30 days followed by 2 weeks observation; type: functional, organism-based
# [32] = system: HepG2; experiment: Antitumor activity against human HepG2 cells xenografted in Balb/C mouse assessed as inhibition of tumor growth at 2 mg/kg, iv dosed once per week for 30 days followed by 2 weeks observation relative untreated control; type: functional; conditions: read-out: TGI
# [33] = target: T1, DNA topoisomerase 1 (Homo sapiens) (UniProt P11387); experiment: Inhibition of human recombinant topoisomerase-1-mediated DNA cleavage in at 100 uM using supercoiled pHOT-1 DNA incubated for 30 mins by ethidium bromide staining based agarose gel elctrophoresis method
# T1 sequence (whole entry): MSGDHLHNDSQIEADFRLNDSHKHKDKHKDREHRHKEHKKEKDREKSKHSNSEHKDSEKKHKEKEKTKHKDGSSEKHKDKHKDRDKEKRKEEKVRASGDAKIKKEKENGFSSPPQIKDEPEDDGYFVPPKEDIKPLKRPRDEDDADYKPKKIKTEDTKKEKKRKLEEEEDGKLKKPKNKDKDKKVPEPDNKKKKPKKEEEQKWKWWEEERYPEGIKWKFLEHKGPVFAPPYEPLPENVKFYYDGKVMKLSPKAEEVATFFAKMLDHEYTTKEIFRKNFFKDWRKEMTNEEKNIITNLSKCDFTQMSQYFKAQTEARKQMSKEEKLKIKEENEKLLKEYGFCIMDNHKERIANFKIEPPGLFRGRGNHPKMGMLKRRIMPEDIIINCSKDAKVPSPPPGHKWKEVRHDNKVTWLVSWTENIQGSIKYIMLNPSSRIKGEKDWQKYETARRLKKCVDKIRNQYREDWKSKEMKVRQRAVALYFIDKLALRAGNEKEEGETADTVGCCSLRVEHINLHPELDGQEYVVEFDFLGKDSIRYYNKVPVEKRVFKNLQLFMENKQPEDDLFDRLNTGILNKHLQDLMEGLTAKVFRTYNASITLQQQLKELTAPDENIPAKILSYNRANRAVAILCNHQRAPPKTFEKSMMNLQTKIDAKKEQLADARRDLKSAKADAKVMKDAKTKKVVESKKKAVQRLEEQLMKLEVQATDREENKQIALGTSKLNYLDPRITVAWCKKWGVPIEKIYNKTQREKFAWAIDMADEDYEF
# [34] = target: T1, DNA topoisomerase 1 (Homo sapiens); experiment: Inhibition of human recombinant topoisomerase-1-mediated DNA cleavage in at 50 uM using supercoiled pHOT-1 DNA incubated for 30 mins by ethidium bromide staining based agarose gel elctrophoresis method
# [35] = system: Mus musculus; experiment: Toxicity in Balb/C mouse administered as daily dose for 1 week measured daily for up to 28 days; type: organism-based; conditions: in vivo
# [36] = Aqueous solubility of the compound; type: physicochemical; conditions: aqueous; read-out: solubility
smiles,measurement,setting,value
CC[C@@]1(OC(=O)CNC(=O)CCC(=O)O)C(=O)OCc2c1cc1n(c2=O)Cc2cc3c4c(ccc3nc2-1)OC(C(C)C)NC4=O (stereo not given in full),IC50,[1],> 10 µM
same,Activity,[2],Toxic
same,IC50,[3],5.02 µM
same,Activity,[4],Non-Toxic
same,IC50,[5],> 10 µM
same,Activity,[6],Non-Toxic
same,inhibition in vivo at 30 mg/kg,[7],90%
same,inhibition in vivo at 8 mg/kg,[8],93%
same,Activity,[9],Toxic
same,Activity,[10],Non-Toxic
same,inhibition in vivo at 4 mg/kg,[11],83%
same,Activity,[12],Non-Toxic
same,Activity,[13],Non-Toxic
same,IC50,[14],0.971 µM
same,inhibition in vivo at 1.3 mg/kg,[15],93%
same,IC50,[16],7.28 µM
same,IC50,[17],0.194 µM
same,Drug metabolism,[18],Metabolite_Notdetected
same,IC50,[19],0.971 µM
same,IC50,[20],> 10 µM
same,Drug uptake,[21],Not Active
same,Drug metabolism,[22],Metabolite_Notdetected
same,Activity,[23],100%
same,IC50,[24],6.47 µM
same,IC50,[25],> 10 µM
same,Activity,[26],Toxic
same,IC50,[27],> 10 µM
same,Activity,[28],Non-Toxic
same,Drug metabolism,[29],Metabolite_Notdetected
CC[C@@]1(O)C(=O)OCc2c1cc1n(c2=O)Cc2cc3c(CN(C)C)c(O)ccc3nc2-1 [TOPOTECAN],Activity,[30],Toxic
same,IC50,[1],7.12 µM
same,TGI,[31],Active
same,inhibition in vivo at 2 mg/kg,[32],74%
same,IC50,[3],1.9 µM
same,IC50,[5],> 10 µM
same,inhibition,[33],Active
same,inhibition,[34],Active
same,IC50,[14],0.237 µM
same,IC50,[17],0.093 µM
same,IC50,[19],0.19 µM
same,IC50,[20],11.6 µM
same,MTD,[35],2 mg/kg
same,IC50,[25],11.9 µM
same,solubility,[36],< 1000 µg/mL
same,IC50,[27],2.14 µM
